Series [1] can be described thus: Fluorescence quantum yield. Format: physicochemical. The conditions noted are these: triazole compound at a physiological pH. An excerpt:
(§1) Therefore, use of DCl-DA Cal enables observation of intracellular reactive nitrogen species over such a long period of time that cannot be achieved by conventional fluorescent probes for measuring reactive nitrogen.

Series [2] can be described thus: Stability under physiological conditions. Format: physicochemical.
Excerpt: as §1

On to `O=C(O)CN(CC(=O)O)Cc1c2oc3c(CN(CC(=O)O)CC(=O)O)c(O)c(Cl)cc3c(-c3ccc4[nH]nnc4c3C(=O)O)c-2cc(Cl)c1=O` [triazole compound], for which, in series [1], the “fluorescence quantum yield Φf” value turned out to be 0.63. Moreover, the “stability under physiological conditions” value in series [2] is “stable under physiological conditions”.

Source of the values: patent publication US8895317B2, “Reagent for measuring active nitrogen” (The University of Tokyo, priority 2008, dated 2014).
